According to US12296027B2, “Molecular renal probes for detecting acute kidney injury” (Nanyang Technological University, priority 2019, dated 2025):
Where two headings read alike, the source gives them in different places. Values belong to the compound of their own block, whether it stands above or below them.

What was measured:
[1] = Body weight of drug-treated mice; assay type: in vivo; conditions: BALB/c mice, single i.v. dose
Protocol: Mice were randomly selected and treated with cisplatin (5 mg kg^−1, 10 mg kg^−1 or 20 mg kg^−1 body weight, i.p. injection), gentamicin (100 mg kg^−1 day^−1, i.p. injection) or diatrizoate (1000 mg kg^−1 body weight, i.v injection, water deprivation for 24 h before treatment). The control groups were treated with saline (0.2 ml) or NAC (400 mg kg^−1 body weight, i.v injection) 30 min prior to cisplatin administration^50. Body weights of all the mice were recorded during treatment. After drug administration, the weight of mice and signs of discomfort were monitored on a daily basis during the entire experiments (FIG. 46). Imaging, blood and urine sampling were conducted at different timepoints post-treatment of drug. At the end, mice were euthanized and major organs were placed into 4% paraformaldehyde for histological examination.
For the doxorubicin model, dose-finding studies were first carried out to define an optimal dose of 10 mg kg^−1 body weight of doxorubicin. […] The corresponding MRP (40 mg kg^−1) was systematically injected through the tail vein at t=0, 2 d, 5 d, and 8 d post-treatment of DOX, and fluorescence images were acquired. […] Fluorescence images of living mice and urine samples were acquired for 0.1 s with excitation at 675±20 nm, and emission at 720±20 nm. Fluorescence images were analysed by ROI analysis using the Living Image 4.0 Software.

[2] = cited from earlier work
[3] = in DMSO; cited from earlier work
[4] = Commercial assays of serum and urinary kidney injury biomarkers in drug-treated mice; assay type: in vivo
Protocol: Urine was collected using metabolic cages from drug-treated mice at different timepoints post-treatment of drug. The collected urine samples were centrifuged at 4500 r.p.m. for 8 min and filtered by 0.22 μm syringe filter. MRPs1-3 solutions (30 μM) in PBS buffer (10 mM, pH 7.4) were incubated with the urine (100 μl) at 37° C., followed by fluorescence measurements on fluorescence spectrophotometer after 2 h incubation (9 mice were analysed for each sample). Urinary TFF3, osteopontin, NGAL, β2-Microglobulin, KIM-1, clusterin levels were quantified using ELISA kits according to the manufacturer's protocol (6 mice were analysed for each sample).
Blood was collected from the tail vein in living NCr nude mice under isoflurane anesthesia at t=8, 12, 16, 24, or 48 h post-treatment of cisplatin (20 mg kg^−1 body weight), or at t=24, 48, 72, 96, or 144 h post-treatment of gentamicin (100 mg kg^−1 day^−1 body weight), or at t=2, 8, 16, 24, or 48 h post-treatment of diatrizoate (1000 mg kg^−1 body weight), or saline (0.2 ml) treated mice. The collected blood samples were centrifuged for 20 min at 3500 r.p.m. Serum creatinine, BUN and cystatin C were determined using commercial kits according to the manufacturer's protocol (5 mice were analysed for each sample).
Blood was collected from the tail vein in living mice under isoflurane anesthesia at t=2, 8, 16, 24 or 48 h post-treatment of diatrizoate (1 g kg^−1 body weight), or PBS treated mice, or NAC/DTZ co-treated mice. The collected blood samples were centrifuged for 15 min at 4500 r.p.m. Serum creatinine and BUN were determined using commercial kits according to the manufacturer's protocol (3 mice were analysed for each sample).

[5] = Determination of GFR by FITC-inulin method in drug-treated mice; assay type: in vivo
Protocol: FITC-inulin (150 mg) was dissolved in 0.9% NaCl (3 ml) at 75° C. and dialysed in 0.9% NaCl (1000 ml) at room temperature for 24 h. Dialysed FITC-inulin (3.74 μl g^−1 […]), or at t=24, 36, 48, 96, or 144 h post-treatment of gentamicin (100 mg kg^−1 day^−1 body weight), or at t=2, 8, 16, 24, or 48 h post-treatment of diatrizoate (1000 mg kg^−1 body weight), or saline (0.2 ml) treated mice. Blood (approximately 20 μl) was collected via saphenous vein at 3, 7, 10, 15, 35, 55, and 75 min post-injection of FITC-inulin, and then centrifuged for 20 min at 3500 r.p.m. Serum sample (10 μl) was diluted with HEPES buffer (40 μl, 500 mM, pH 7.4) and fluorescence was measured using spectramax with excitation at 485 nm and emission at 538 nm. Serum fluorescence data were presented as a two-component exponential decay curve using nonlinear regression (3 mice were analysed for each sample). GFR was calculated according to the equation (Z. Qi, et al., Am. J. Physiol. Renal. Physiol. 2004, 286, F590-596): […], where I is the amount of FITC-inulin delivered by the bolus injection, A and B are the y-intercept values of the two decay rates, and α and β are the decay constants for the distribution and elimination phases, respectively.
FITC-inulin (150 mg) was dissolved in 0.9% NaCl (3 ml), heated at 75° C. and dialysed in 0.9% NaCl (1000 ml) at room temperature for 24 h. Dialysed FITC-inulin (3.74 μl g^−1 body weight) was i.v. injected into living mice at =2, 8, 16, 24, or 48 h post-treatment of diatrizoate (1 g kg^−1 body weight), or PBS (0.2 ml) treated mice, or NAC/DTZ co-treated mice. Blood (approximately 20 μl) was collected via tail vein at 3, 7, 10, 15, 35, 55, and 75 min post-injection of FITC-inulin, and then centrifuged for 15 min at 4500 r.p.m. Serum sample (10 μl) was diluted with PBS buffer (40 μl, 10 mM, pH 7.4) and fluorescence was measured using spectramax with excitation at 485 nm and emission at 538 nm. Serum fluorescence data were presented as a two-component exponential decay curve using nonlinear regression (3 mice were analysed for each sample). GFR was calculated according to the equation: […], where 1 is the amount of FITC-inulin delivered by the bolus injection, A and B are the y-intercept values of the two decay rates, and α and β are the decay constants for the distribution and elimination phases, respectively.

[6] = at first significant timepoint, initial studies
[7] = at first significant timepoint, subsequent studies

Compound: COc1cccc2c1C(=O)c1c(O)c3c(c(O)c1C2=O)C[C@@](O)(C(=O)CO)C[C@@H]3O[C@H]1C[C@H](N)[C@H](O)[C@H](C)O1 [DOX, doxorubicin]
mean body weight gain by day 16 [1]: 3%
mean body weight loss by day 8 [1]: approximately 6%

Compound: CNC(=O)CN(CCN(CCN(CC(=O)[O-])CC(=O)NC)CC(=O)[O-])CC(=O)[O-].[Gd+3] [Gd-DTPA-BMA]
Renal clearance efficiency ([2]; in 24 h, S.D Rats): 95% in 24 h

Compound: CC1(C)C(/C=C/C=C/C=C/C=C2\N(CCCCS(=O)(=O)[O-])c3ccc4ccccc4c3C2(C)C)=[N+](CCCCS(=O)(=O)[O-])c2ccc3ccccc3c21.[Na+] [ICG]
fluorescence quantum yield (ϕ) of standard [3]: 13%

Compound: CC(=O)N(CC(O)CO)c1c(I)c(C(=O)NCC(O)CO)c(I)c(C(=O)NCC(O)CO)c1I (stereo not drawn) [Iohexol]
Renal clearance efficiency ([2]; in 4 h, S.D rats): 59.7% in 4 h

Compound: CNC(=O)c1c(I)c(NC(C)=O)c(I)c(C(=O)O)c1I [Iothalamate]
Renal clearance efficiency ([2]; in 24 h, S.D rat): 93.5% ID in 24 h

Compound: N.N.[Cl][Pt][Cl] [cisplatin]
time of first statistically significant change of urinary NGAL and trefoil factor-3 ([4]; mouse, in vivo): 48 h
time of first statistically significant increase of urinary KIM-1 and clusterin ([4]; mouse, in vivo): 24 h
time of increase of serum Cystatin C ([4]; mouse, in vivo): 48 h
time of statistically significant change of urinary osteopontin ([4]; mouse, in vivo): 72 h
time of statistically significant change of urinary β2-microglobulin ([4]; mouse, in vivo): 72 h
time of statistically significant increase of sCr and BUN after treatment ([4]; mouse, in vivo): 72 h
urinary KIM-1 increase ([4]; mouse, in vivo): 1.9 fold
urinary NGAL change ([4]; mouse, in vivo): 2.7 fold
urinary NGAL change, alternative value ([4]; mouse, in vivo): 2.72 fold
urinary clusterin increase ([4]; mouse, in vivo): 4.1 fold
urinary osteopontin change ([4]; mouse, in vivo): 2.3 fold
urinary trefoil factor-3 change ([4]; mouse, in vivo): 0.4 fold
urinary β2-microglobulin change ([4]; mouse, in vivo): 3.9 fold
decrease in GFR at timepoint of sCr/BUN increase ([5]; mouse, in vivo): ~50%

decrease in GFR at 24 h post-treatment ([5]; mouse, in vivo): ~40%
decrease in GFR at 48 h post-treatment ([5]; mouse, in vivo): ~60%
decrease in GFR at timepoint of sCr/BUN increase ([5]; mouse, in vivo): ~50%
Compound: CC(=O)Nc1c(I)c(NC(C)=O)c(I)c(C(=O)O)c1I [diatrizoate]
BUN relative to control groups ([4]; mouse, in vivo): 1.8 fold
sCr relative to control groups ([4]; mouse, in vivo): 1.7 fold
time of first statistically significant change of urinary NGAL and trefoil factor-3 ([4]; mouse, in vivo): 24 h
time of first statistically significant increase of urinary KIM-1 and clusterin ([4]; mouse, in vivo): 24 h
time of statistically significant change of urinary osteopontin ([4]; mouse, in vivo): 24 h
time of statistically significant change of urinary β2-microglobulin ([4]; mouse, in vivo): 48 h
time of statistically significant increase of sCr and BUN after treatment ([4]; mouse, in vivo): 24 h
urinary KIM-1 increase ([4]; mouse, in vivo): 3.7 fold
urinary NGAL change ([4]; mouse, in vivo): 2.3 fold
urinary NGAL change, alternative value ([4]; mouse, in vivo): 2.05 fold
urinary clusterin increase ([4]; mouse, in vivo): 3.0 fold
urinary osteopontin change ([4]; mouse, in vivo): 2.3 fold
urinary trefoil factor-3 change ([4]; mouse, in vivo): 0.5 fold
urinary β2-microglobulin change ([4]; mouse, in vivo): 3.6 fold

Compound: gentamicin
urinary KIM-1 increase ([4]; at first significant timepoint): 2.2 fold
urinary NGAL change ([4]; at first significant timepoint): 2.0 fold
urinary NGAL change, alternative value ([4]; at first significant timepoint): 1.98 fold
urinary clusterin increase ([4]; at first significant timepoint): 3.5 fold
urinary osteopontin change ([4]; at first significant timepoint): 2.3 fold
urinary trefoil factor-3 change ([4]; at first significant timepoint): 0.3 fold
urinary β2-microglobulin change ([4]; at first significant timepoint): 3.2 fold
BUN increase [4, 6]: 2.23 fold
sCr increase [4, 6]: 2.82 fold
BUN increase [4, 7]: 2.4 fold
sCr increase [4, 7]: 2.9 fold
time of first statistically significant change of urinary NGAL and trefoil factor-3 ([4]; mouse, in vivo): 96 h
time of first statistically significant increase of urinary KIM-1 and clusterin ([4]; mouse, in vivo): 72 h
time of statistically significant change of urinary osteopontin ([4]; mouse, in vivo): 144 h
time of statistically significant change of urinary β2-microglobulin ([4]; mouse, in vivo): 144 h
time of statistically significant increase of sCr and BUN after treatment ([4]; nephrotoxic dose, mice): 144 h
decrease in GFR at timepoint of sCr/BUN increase ([5]; 72 h cisplatin, 144 h gentamicin, 24 h diatrizoate): ~50%
